From patent US20070270418A1, “Inhibitors of P38 and Methods of Using the Same” (priority 2003, published 2007)

How the values were obtained:
Experiment in all cases: Broad selectivity panel, 32P incorporation
Assay type in all cases: biochemical
GSK3β = target: T1, GSK3β (Homo sapiens, UniProt P49841); details: 40 μM ATP, read-out: Percent inhibition GSK3β; for inhibition at 0.1 µM: 0.1 μM compound; for inhibition at 1 µM: 1 μM compound
T1 construct: purchased Upstate (Charlottesville, Va.)
In short: (§1)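 Percent inhibition is derived from the drop in 32P labelling of substrate when compound is present, against buffer-only controls. Each compound is run at 0.1 and 1 μM, ATP fixed at 40 μM, across 24 panel kinases.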

MKK6 = target: T2, MKK6 (Homo sapiens, UniProt P52564); details: 40 μM ATP, read-out: Percent inhibition MKK6; for inhibition at 0.1 µM: 0.1 μM compound; for inhibition at 1 µM: 1 μM compound
T2 construct: purchased Upstate (Charlottesville, Va.)
T2 sequence (P52564 1-334): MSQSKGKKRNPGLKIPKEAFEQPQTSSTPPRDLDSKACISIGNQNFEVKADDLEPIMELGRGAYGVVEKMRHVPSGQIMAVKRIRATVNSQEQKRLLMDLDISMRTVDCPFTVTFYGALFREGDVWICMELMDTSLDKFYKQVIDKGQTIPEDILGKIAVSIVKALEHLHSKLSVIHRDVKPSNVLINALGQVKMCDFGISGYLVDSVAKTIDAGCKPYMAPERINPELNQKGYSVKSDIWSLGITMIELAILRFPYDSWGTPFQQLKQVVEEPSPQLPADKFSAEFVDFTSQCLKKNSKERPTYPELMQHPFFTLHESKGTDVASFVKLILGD
In short: as §1

SAPK4 = target: T3, SAPK4 (Homo sapiens, UniProt O15264); details: 40 μM ATP, read-out: Percent inhibition SAPK4; for inhibition at 0.1 µM: 0.1 μM compound; for inhibition at 1 µM: 1 μM compound
T3 construct: purchased Upstate (Charlottesville, Va.)
T3 sequence (O15264 1-365): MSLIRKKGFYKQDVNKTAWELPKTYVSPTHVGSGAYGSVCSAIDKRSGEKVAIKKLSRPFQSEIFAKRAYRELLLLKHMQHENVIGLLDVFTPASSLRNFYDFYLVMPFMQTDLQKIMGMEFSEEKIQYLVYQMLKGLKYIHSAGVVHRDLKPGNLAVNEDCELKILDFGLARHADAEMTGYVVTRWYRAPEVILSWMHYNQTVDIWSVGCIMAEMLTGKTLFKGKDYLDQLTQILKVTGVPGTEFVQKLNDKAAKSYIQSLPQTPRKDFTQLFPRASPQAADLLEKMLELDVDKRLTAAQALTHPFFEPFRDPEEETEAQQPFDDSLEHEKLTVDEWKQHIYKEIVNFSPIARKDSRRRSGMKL
In short: as §1

MAPK1 = target: T4, MAPK1 (Homo sapiens, UniProt P27361); details: 40 μM ATP, read-out: Percent inhibition MAPK1; for inhibition at 0.1 µM: 0.1 μM compound; for inhibition at 1 µM: 1 μM compound
T4 construct: purchased Upstate (Charlottesville, Va.)
T4 sequence (P27361 whole entry): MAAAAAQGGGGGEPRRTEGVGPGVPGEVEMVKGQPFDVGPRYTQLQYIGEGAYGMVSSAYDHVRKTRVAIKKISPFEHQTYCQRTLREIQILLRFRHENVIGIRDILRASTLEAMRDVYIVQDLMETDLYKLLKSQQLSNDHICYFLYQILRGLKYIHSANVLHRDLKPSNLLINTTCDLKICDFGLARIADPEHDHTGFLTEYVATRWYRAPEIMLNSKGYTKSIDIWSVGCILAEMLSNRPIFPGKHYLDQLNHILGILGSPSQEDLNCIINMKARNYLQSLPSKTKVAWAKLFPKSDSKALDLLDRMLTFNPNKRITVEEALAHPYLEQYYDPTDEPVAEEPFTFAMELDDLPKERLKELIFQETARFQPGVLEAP
In short: as §1

FGFR3 = target: T5, FGFR3 (Homo sapiens, UniProt P22607); details: 40 μM ATP, read-out: Percent inhibition FGFR3; for inhibition at 0.1 µM: 0.1 μM compound; for inhibition at 1 µM: 1 μM compound
T5 construct: purchased Upstate (Charlottesville, Va.)
T5 sequence (P22607 23-806, species assumed): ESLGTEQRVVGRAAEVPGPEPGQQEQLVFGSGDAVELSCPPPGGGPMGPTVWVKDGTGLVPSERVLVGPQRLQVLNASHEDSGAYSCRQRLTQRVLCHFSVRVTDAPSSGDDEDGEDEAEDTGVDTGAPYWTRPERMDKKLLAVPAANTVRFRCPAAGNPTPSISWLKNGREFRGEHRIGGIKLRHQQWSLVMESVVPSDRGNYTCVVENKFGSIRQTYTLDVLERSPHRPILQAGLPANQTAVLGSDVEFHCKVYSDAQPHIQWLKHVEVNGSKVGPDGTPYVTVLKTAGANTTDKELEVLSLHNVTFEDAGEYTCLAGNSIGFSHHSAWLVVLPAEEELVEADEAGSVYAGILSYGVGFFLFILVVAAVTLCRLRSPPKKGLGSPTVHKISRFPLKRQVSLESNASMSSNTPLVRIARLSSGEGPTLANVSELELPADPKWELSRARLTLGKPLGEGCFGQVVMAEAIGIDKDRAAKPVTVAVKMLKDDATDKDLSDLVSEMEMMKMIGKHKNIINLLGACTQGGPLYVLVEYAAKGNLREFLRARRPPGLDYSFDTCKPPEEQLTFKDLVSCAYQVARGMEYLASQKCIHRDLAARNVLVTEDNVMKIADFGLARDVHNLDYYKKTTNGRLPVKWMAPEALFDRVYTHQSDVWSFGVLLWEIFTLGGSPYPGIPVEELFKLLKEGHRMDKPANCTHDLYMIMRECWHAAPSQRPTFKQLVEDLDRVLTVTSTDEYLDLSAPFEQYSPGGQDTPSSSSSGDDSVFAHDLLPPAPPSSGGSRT
In short: as §1

c-RAF = target: T6, c-RAF (Homo sapiens, UniProt P04049); details: 40 μM ATP, read-out: Percent inhibition c-RAF; for inhibition at 0.1 µM: 0.1 μM compound; for inhibition at 1 µM: 1 μM compound
T6 construct: purchased Upstate (Charlottesville, Va.)
T6 sequence (P04049 whole entry, species assumed): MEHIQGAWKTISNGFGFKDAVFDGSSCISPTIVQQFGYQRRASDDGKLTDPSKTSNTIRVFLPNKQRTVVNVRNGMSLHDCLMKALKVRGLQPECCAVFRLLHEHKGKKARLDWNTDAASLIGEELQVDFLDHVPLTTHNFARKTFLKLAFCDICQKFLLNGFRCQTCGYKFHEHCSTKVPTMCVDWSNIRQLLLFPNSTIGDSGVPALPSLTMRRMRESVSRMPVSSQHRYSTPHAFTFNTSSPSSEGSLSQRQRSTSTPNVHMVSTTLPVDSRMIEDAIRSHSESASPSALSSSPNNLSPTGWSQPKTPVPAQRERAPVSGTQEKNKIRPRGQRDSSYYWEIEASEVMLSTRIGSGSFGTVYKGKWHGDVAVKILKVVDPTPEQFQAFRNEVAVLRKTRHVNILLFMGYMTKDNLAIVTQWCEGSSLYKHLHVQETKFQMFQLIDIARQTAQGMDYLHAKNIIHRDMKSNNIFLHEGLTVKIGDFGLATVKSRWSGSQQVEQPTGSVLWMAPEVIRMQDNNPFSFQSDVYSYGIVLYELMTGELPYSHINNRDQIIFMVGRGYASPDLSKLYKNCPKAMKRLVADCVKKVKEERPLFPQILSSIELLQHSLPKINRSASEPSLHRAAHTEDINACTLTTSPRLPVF
In short: as §1

PKB α = target: T7, PKB α (Homo sapiens, UniProt P31749); details: 40 μM ATP, read-out: Percent inhibition PKB α; for inhibition at 0.1 µM: 0.1 μM compound; for inhibition at 1 µM: 1 μM compound
T7 construct: purchased Upstate (Charlottesville, Va.)
T7 sequence (P31749 whole entry, species assumed): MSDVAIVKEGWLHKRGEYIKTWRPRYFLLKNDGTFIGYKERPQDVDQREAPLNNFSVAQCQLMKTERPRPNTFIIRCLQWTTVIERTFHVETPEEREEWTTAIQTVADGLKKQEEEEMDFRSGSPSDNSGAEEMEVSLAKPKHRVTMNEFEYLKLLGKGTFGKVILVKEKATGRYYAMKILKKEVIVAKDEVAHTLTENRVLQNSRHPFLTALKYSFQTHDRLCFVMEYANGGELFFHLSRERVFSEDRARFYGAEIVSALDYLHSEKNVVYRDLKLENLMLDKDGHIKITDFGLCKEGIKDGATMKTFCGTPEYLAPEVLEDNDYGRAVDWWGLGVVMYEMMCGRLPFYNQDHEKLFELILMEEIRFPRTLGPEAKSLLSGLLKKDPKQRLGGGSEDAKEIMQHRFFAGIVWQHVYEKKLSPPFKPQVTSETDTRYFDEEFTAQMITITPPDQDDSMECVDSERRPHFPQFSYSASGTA
In short: as §1

ZAP-70 = target: T8, ZAP-70 (Homo sapiens, UniProt P43403); details: 40 μM ATP, read-out: Percent inhibition ZAP-70; for inhibition at 0.1 µM: 0.1 μM compound; for inhibition at 1 µM: 1 μM compound
T8 construct: purchased Upstate (Charlottesville, Va.)
T8 sequence (P43403 1-619): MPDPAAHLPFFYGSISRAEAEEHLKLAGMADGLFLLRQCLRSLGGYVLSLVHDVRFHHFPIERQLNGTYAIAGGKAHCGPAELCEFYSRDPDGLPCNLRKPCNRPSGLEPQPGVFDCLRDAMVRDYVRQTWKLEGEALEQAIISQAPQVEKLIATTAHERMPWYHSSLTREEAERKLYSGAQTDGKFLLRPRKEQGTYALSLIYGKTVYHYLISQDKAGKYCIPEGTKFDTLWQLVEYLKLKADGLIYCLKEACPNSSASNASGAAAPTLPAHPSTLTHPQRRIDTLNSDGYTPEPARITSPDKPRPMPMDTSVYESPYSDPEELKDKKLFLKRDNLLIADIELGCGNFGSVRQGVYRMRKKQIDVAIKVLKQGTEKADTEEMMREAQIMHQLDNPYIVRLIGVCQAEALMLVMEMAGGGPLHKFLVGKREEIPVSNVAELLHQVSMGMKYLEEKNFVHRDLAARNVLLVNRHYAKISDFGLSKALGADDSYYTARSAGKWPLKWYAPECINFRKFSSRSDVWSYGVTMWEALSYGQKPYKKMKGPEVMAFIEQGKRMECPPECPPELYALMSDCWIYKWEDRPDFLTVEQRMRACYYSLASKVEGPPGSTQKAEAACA
In short: as §1

JNK1α1 = target: T9, JNK1α1 (Homo sapiens, UniProt P45983); details: 40 μM ATP, read-out: Percent inhibition JNK1α1; for inhibition at 0.1 µM: 0.1 μM compound; for inhibition at 1 µM: 1 μM compound
T9 construct: purchased Upstate (Charlottesville, Va.)
T9 sequence (P45983 1-384 isoform P45983-2, species assumed): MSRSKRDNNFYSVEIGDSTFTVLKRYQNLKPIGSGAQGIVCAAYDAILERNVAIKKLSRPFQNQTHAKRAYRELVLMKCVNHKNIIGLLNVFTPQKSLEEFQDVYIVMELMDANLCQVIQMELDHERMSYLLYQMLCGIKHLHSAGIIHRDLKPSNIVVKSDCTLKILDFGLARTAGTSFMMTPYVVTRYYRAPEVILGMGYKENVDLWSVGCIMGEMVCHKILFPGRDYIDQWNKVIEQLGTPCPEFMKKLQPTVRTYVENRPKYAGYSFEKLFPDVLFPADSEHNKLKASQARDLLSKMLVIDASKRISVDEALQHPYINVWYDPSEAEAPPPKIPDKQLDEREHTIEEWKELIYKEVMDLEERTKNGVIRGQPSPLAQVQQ
In short: as §1

p70S6K = details: 40 μM ATP
In short: as §1

PKBβ = target: T10, PKBβ (Homo sapiens, UniProt P31751); details: 40 μM ATP, read-out: Percent inhibition PKBβ; for inhibition at 0.1 µM: 0.1 μM compound; for inhibition at 1 µM: 1 μM compound
T10 construct: purchased Upstate (Charlottesville, Va.)
T10 sequence (P31751 whole entry, species assumed): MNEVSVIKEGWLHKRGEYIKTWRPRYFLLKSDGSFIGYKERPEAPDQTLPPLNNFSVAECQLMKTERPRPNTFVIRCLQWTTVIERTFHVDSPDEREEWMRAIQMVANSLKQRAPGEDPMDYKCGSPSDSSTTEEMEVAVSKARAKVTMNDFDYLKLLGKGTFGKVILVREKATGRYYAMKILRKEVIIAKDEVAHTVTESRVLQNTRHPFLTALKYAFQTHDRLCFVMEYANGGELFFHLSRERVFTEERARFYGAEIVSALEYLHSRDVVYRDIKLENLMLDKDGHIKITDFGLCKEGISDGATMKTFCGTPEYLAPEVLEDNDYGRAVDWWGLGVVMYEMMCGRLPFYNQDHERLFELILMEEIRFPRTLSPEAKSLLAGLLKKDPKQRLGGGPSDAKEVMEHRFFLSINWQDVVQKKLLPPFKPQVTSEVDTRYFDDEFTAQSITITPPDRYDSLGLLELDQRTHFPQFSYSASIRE
In short: as §1

JNK3-His = target: T11, JNK3-His (Homo sapiens, UniProt P53779); details: 40 μM ATP, read-out: Percent inhibition JNK3-His; for inhibition at 0.1 µM: 0.1 μM compound; for inhibition at 1 µM: 1 μM compound
T11 construct: His; purchased Upstate (Charlottesville, Va.)
T11 sequence (P53779 whole entry): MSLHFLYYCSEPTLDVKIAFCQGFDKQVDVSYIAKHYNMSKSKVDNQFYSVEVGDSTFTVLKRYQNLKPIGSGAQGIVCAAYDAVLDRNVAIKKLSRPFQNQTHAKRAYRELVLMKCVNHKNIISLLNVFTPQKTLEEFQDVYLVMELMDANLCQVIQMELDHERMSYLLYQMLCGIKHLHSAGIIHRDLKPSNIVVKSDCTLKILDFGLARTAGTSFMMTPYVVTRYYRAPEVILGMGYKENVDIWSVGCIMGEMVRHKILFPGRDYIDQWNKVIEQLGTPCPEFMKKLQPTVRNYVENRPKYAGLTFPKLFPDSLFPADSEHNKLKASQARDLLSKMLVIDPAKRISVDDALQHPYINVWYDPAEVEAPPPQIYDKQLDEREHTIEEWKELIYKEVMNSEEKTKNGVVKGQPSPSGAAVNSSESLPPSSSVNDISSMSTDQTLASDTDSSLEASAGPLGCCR
In short: as §1

CK2 = target: T12, CK2 (Homo sapiens, UniProt P68400); details: 40 μM ATP, read-out: Percent inhibition CK2; for inhibition at 0.1 µM: 0.1 μM compound; for inhibition at 1 µM: 1 μM compound
T12 construct: purchased Upstate (Charlottesville, Va.)
T12 sequence (P68400 whole entry): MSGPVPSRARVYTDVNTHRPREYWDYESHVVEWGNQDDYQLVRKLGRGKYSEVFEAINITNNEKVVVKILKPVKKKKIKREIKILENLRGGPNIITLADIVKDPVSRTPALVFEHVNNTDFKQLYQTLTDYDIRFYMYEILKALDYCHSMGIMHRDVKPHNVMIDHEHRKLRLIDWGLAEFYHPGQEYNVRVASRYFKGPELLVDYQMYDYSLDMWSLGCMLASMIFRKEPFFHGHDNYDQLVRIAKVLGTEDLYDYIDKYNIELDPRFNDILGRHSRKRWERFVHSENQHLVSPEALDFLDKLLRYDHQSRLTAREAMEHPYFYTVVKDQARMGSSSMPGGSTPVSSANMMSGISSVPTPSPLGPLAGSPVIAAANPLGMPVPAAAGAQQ
T12 sequence (P67870 whole entry partner): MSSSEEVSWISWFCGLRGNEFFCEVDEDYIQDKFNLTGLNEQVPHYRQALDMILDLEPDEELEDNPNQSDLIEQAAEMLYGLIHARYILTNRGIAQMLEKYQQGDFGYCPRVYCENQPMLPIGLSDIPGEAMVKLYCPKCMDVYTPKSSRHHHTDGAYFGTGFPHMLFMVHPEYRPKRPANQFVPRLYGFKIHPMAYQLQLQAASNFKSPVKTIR
In short: as §1

T1 sequence (P49841 whole entry, species assumed): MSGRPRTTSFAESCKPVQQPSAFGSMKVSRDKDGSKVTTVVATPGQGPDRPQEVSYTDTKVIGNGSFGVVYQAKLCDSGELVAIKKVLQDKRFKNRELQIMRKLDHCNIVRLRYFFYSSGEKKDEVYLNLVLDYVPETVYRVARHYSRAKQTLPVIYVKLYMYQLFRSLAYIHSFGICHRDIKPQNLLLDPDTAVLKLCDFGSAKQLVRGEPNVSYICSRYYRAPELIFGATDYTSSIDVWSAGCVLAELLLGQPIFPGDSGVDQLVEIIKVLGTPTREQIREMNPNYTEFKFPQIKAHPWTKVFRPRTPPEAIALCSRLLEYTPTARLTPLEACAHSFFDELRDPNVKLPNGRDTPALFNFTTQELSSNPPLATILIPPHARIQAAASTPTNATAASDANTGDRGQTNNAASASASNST

Structure (SMILES) | inhibition at 0.1 µM (GSK3β) [%] | inhibition at 1 µM (GSK3β) [%] | inhibition at 0.1 µM (MKK6) [%] | inhibition at 1 µM (MKK6) [%] | inhibition at 0.1 µM (SAPK4) [%] | inhibition at 1 µM (SAPK4) [%] | inhibition at 0.1 µM (MAPK1) [%] | inhibition at 1 µM (MAPK1) [%] | inhibition at 0.1 µM (FGFR3) [%] | inhibition at 1 µM (FGFR3) [%] | inhibition at 0.1 µM (c-RAF) [%] | inhibition at 1 µM (c-RAF) [%] | inhibition at 0.1 µM (PKB α) [%] | inhibition at 1 µM (PKB α) [%] | inhibition at 0.1 µM (ZAP-70) [%] | inhibition at 1 µM (ZAP-70) [%] | inhibition at 0.1 µM (JNK1α1) [%] | inhibition at 1 µM (JNK1α1) [%] | Percent inhibition p70S6K (p70S6K; 0.1 μM compound) | Percent inhibition p70S6K (p70S6K; 1 μM compound) | further results
Fc1ccc(-c2nc3occn3c2-c2ccnc(N[C@@H]3CN4CCC3CC4)n2)cc1 [LXXI] | -8 | 10 | -5 | 80 | -1 | 3 | 27 | 56 | -1 | 16 | 7 | 42 | -5 | 9 | -17 | 4 | -20 | 3 | −10 | 6 | inhibition at 0.1 µM (PKBβ): -42%; inhibition at 1 µM (PKBβ): -5%; inhibition at 0.1 µM (JNK3-His): -7%; inhibition at 1 µM (JNK3-His): 59%; inhibition at 0.1 µM (CK2): 3%; inhibition at 1 µM (CK2): 12%
Fc1ccc(-c2nc3occn3c2-c2ccnc(NC3CCNCC3)n2)cc1 [CCLXXX] | 5 | 14 | 0 | 62 | 0 | 6 | 20 | 45 | -1 | 13 | 21 | 75 | -1 | 13 | -2 | 9 | -26 | 18 | 7 | 18 | inhibition at 0.1 µM (PKBβ): -18%; inhibition at 1 µM (PKBβ): 13%; inhibition at 0.1 µM (JNK3-His): 39%; inhibition at 1 µM (JNK3-His): 84%; inhibition at 0.1 µM (CK2): 10%; inhibition at 1 µM (CK2): 32%
CN(C)CC(C)(C)CNc1nccc(-c2c(-c3ccc(F)cc3)nc3occn23)n1 [CXIX] | 11 | 13 | 1 | 75 | 3 | -4 | 7 | 15 | 9 | -2 | -3 | 3 | 11 | 5 | 13 | -9 | -1 | -18 | 0 | −5 | inhibition at 0.1 µM (PKBβ): -4%; inhibition at 1 µM (PKBβ): -19%; inhibition at 0.1 µM (JNK3-His): 19%; inhibition at 1 µM (JNK3-His): 56%; inhibition at 0.1 µM (CK2): 9%; inhibition at 1 µM (CK2): 3%
